Like-named read-outs stand apart in the source and are kept apart here.
What was measured:
[1] = Steady-state plasma pharmacokinetics in healthy volunteers; format: in vivo, human
[2] = system: CYP3A4; details: cited from earlier work
[3] = cited from earlier work
[4] = Day 11, Arm 1, participant 2, saquinavir/ritonavir 1,000/100 mg orally twice daily
[5] = Day 11, Arm 1, participant 4, saquinavir/ritonavir 1,000/100 mg orally twice daily
[6] = Day 12, Arm 1, participant 2, saquinavir/ritonavir 1,000/100 mg orally twice daily
[7] = Day 12, Arm 1, participant 4, saquinavir/ritonavir 1,000/100 mg orally twice daily
[8] = Day 13, Arm 1, participant 2, saquinavir/ritonavir 1,000/100 mg orally twice daily
[9] = Day 13, Arm 1, participant 4, saquinavir/ritonavir 1,000/100 mg orally twice daily

In the case of `O=C1Nc2ccc(Cl)cc2[C@@](C#CC2CC2)(C(F)(F)F)O1` [Efavirenz], the “Individual trough plasma concentration” value ([1]; Day 11, Arm 2, participant 1, efavirenz 600 mg orally once daily) is reported as 1,080 ng/mL, the “Individual trough plasma concentration” value ([1]; Day 12, Arm 2, participant 1, efavirenz 600 mg orally once daily) is reported as 1,050 ng/mL and the “Individual trough plasma concentration” value ([1]; Day 13, Arm 2, participant 1, efavirenz 600 mg orally once daily) is reported as 1,060 ng/mL. The AUC ([1]; human, plasma, po, 600 mg) was 42500 ng·h/mL, the Cmax ([1]; human, plasma, po, 600 mg) was 4780 ng/mL and the Tmax ([1]; human, plasma, po, 600 mg) was 2 h. For the same molecule, the half-life ([1]; human, plasma, po, 600 mg) was 26.5 h, the “Effect on CYP3A4” value ([2]; efavirenz) was “potent inducer” and the half-life [3] was 40 to 55 h.
With `CC(C)c1nc(CN(C)C(=O)N[C@H](C(=O)N[C@@H](Cc2ccccc2)C[C@H](O)[C@H](Cc2ccccc2)NC(=O)OCc2cncs2)C(C)C)cs1` [Ritonavir] the “Individual trough plasma concentration” value [1, 4] was 57.8 ng/mL, the “Individual trough plasma concentration” value [1, 5] was 137 ng/mL and the “Individual trough plasma concentration” value [1, 6] was 83.8 ng/mL. The “Individual trough plasma concentration” value [1, 7] was 163 ng/mL, the “Individual trough plasma concentration” value [1, 8] was 86.2 ng/mL and the “Individual trough plasma concentration” value [1, 9] was 251 ng/mL. It also gave a half-life ([1]; human, plasma, po) of 3.53 h and a Tmax ([1]; steady state (day 14), Arm 1, participant 2, saquinavir/ritonavir 1,000/100 mg orally twice daily) of 1.00 h.
In the case of `CC(C)(C)NC(=O)[C@@H]1C[C@@H]2CCCC[C@@H]2CN1C[C@@H](O)[C@H](Cc1ccccc1)NC(=O)[C@H](CC(N)=O)NC(=O)c1ccc2ccccc2n1` [Saquinavir], the “Individual trough plasma concentration” value [1, 4] is reported as 337 ng/mL, the “Individual trough plasma concentration” value [1, 5] is reported as 602 ng/mL and the “Individual trough plasma concentration” value [1, 6] is reported as 640 ng/mL. For the same molecule, the “Individual trough plasma concentration” value [1, 7] was 700 ng/mL, the “Individual trough plasma concentration” value [1, 8] was 867 ng/mL and the “Individual trough plasma concentration” value [1, 9] was 1,220 ng/mL. For the same molecule, the Tmax ([1]; human, plasma, po) was 2 h, the half-life ([1]; human, plasma, po) was 5.98 h and the “Effect on CYP3A4” value ([2]; saquinavir) was “weak CYP3A4 inhibitor”.

— paper PMC2667896 (Archives of Drug Information, 2009)
